From PubChem BioAssay (NCI)
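Where inhibition never reached the appropriate level, the endpoint shown equals the highest concentration tested. Otherwise, values were interpolated linearly from a five-concentration, 48-hour dose response in 96-well plates. The concentration for 50% growth inhibition is given as GI50. Definition used: TGI = concentration required for complete inhibition of growth.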

Key:
Assay in all cases: DTP human tumour cell line panel, 48 h
[1] = system: HL-60(TB) leukemia
[2] = system: SK-MEL-28 melanoma
[3] = system: NCI-H522 lung
[4] = system: M14 melanoma
[5] = system: HCC-2998 colon
[6] = system: SF-268 CNS
[7] = system: OVCAR-4 ovarian
[8] = system: HOP-62 NSCLC
[9] = system: NCI-H460 lung
[10] = system: MOLT-4 leukemia
[11] = system: MCF7 breast
[12] = system: COLO 205 colon
[13] = system: T-47D breast
[14] = system: NCI/ADR-RES ovarian
[15] = system: MDA-MB-231 breast
[16] = system: SW-620 colon
[17] = system: DU-145 prostate
[18] = system: RPMI-8226 leukemia
[19] = system: CAKI-1 renal
[20] = system: UACC-257 melanoma
[21] = system: SK-MEL-2 melanoma
[22] = system: HOP-92 NSCLC
[23] = system: UO-31 renal
[24] = system: SF-295 CNS
[25] = system: KM12 colon
[26] = system: SN12C renal
[27] = system: MDA-MB-435
[28] = system: ACHN renal
[29] = system: BT-549 breast
[30] = system: 786-0 renal
[31] = system: OVCAR-3 ovarian
[32] = system: TK-10 renal
[33] = system: NCI-H23 lung
[34] = system: SK-OV-3 ovarian
[35] = system: A498 renal
[36] = system: IGROV1 ovarian
[37] = system: OVCAR-8 ovarian
[38] = system: SF-539 CNS
[39] = system: SNB-75 CNS
[40] = system: NCI-H226 lung
[41] = system: U251 CNS
[42] = system: HCT-116 colon
[43] = system: LOX IMVI melanoma
[44] = system: HT29 colon
[45] = system: SK-MEL-5 melanoma
[46] = system: A549 NSCLC
[47] = system: CCRF-CEM leukemia
[48] = system: EKVX NSCLC
[49] = system: K-562 leukemia
[50] = system: HCT-15 colon
[51] = system: HS 578T breast
[52] = system: OVCAR-5 ovarian
[53] = system: UACC-62 melanoma
[54] = system: RXF 393 renal
[55] = system: PC-3 prostate
[56] = system: MALME-3M melanoma
[57] = system: SNB-19 CNS
[58] = system: SR leukemia

For O=C1CC(c2cccc(O)c2)C2(C(=O)NC(=S)NC2=O)C(c2cccc(O)c2)C1 (stereo not drawn), the GI50 [1] was > 100 µM, the TGI [1] was > 100 µM and the GI50 [2] was > 100 µM. For the same compound, the TGI [2] was > 100 µM, the GI50 [3] was > 100 µM and the TGI [3] was > 100 µM. For the same compound, the GI50 [4] was > 100 µM, the TGI [4] was > 100 µM and the GI50 [5] was > 100 µM. The TGI [5] was > 100 µM, the GI50 [6] was > 100 µM and the TGI [6] was > 100 µM. For the same compound, the GI50 [7] was > 100 µM, the TGI [7] was > 100 µM and the GI50 [8] was > 100 µM. For the same compound, the TGI [8] was > 100 µM, the GI50 [9] was > 100 µM and the TGI [9] was > 100 µM. The GI50 [10] was > 100 µM, the TGI [10] was > 100 µM and the GI50 [11] was > 100 µM. The TGI [11] was > 100 µM, the GI50 [12] was > 100 µM and the TGI [12] was > 100 µM. For the same compound, the GI50 [13] was > 100 µM, the TGI [13] was > 100 µM and the GI50 [14] was > 100 µM. For the same compound, the TGI [14] was > 100 µM, the GI50 [15] was > 100 µM and the TGI [15] was > 100 µM. For the same compound, the GI50 [16] was > 100 µM, the TGI [16] was > 100 µM and the GI50 [17] was > 100 µM. For the same compound, the TGI [17] was > 100 µM, the GI50 [18] was > 100 µM and the TGI [18] was > 100 µM. The GI50 [19] was > 100 µM, the TGI [19] was > 100 µM and the GI50 [20] was > 100 µM. The TGI [20] was > 100 µM, the GI50 [21] was > 100 µM and the TGI [21] was > 100 µM. The GI50 [22] was > 100 µM, the TGI [22] was > 100 µM and the GI50 [23] was > 100 µM. The TGI [23] was > 100 µM, the GI50 [24] was > 100 µM and the TGI [24] was > 100 µM. The GI50 [25] was > 100 µM, the TGI [25] was > 100 µM and the GI50 [26] was > 100 µM. For the same compound, the TGI [26] was > 100 µM, the GI50 [27] was > 100 µM and the TGI [27] was > 100 µM. The GI50 [28] was > 100 µM, the TGI [28] was > 100 µM and the GI50 [29] was > 100 µM. The TGI [29] was > 100 µM, the GI50 [30] was > 100 µM and the TGI [30] was > 100 µM. For the same compound, the GI50 [31] was > 100 µM, the TGI [31] was > 100 µM and the GI50 [32] was > 100 µM. The TGI [32] was > 100 µM, the GI50 [33] was > 100 µM and the TGI [33] was > 100 µM. The GI50 [34] was > 100 µM, the TGI [34] was > 100 µM and the GI50 [35] was > 100 µM. For the same compound, the TGI [35] was > 100 µM, the GI50 [36] was > 100 µM and the TGI [36] was > 100 µM. The GI50 [37] was > 100 µM, the TGI [37] was > 100 µM and the GI50 [38] was > 100 µM. The TGI [38] was > 100 µM, the GI50 [39] was > 100 µM and the TGI [39] was > 100 µM. For the same compound, the GI50 [40] was > 100 µM, the TGI [40] was > 100 µM and the GI50 [41] was > 100 µM. The TGI [41] was > 100 µM, the GI50 [42] was > 100 µM and the TGI [42] was > 100 µM. For the same compound, the GI50 [43] was > 100 µM, the TGI [43] was > 100 µM and the GI50 [44] was > 100 µM. The TGI [44] was > 100 µM, the GI50 [45] was > 100 µM and the TGI [45] was > 100 µM. For the same compound, the GI50 [46] was > 100 µM, the TGI [46] was > 100 µM and the GI50 [47] was > 100 µM. For the same compound, the TGI [47] was > 100 µM, the GI50 [48] was > 100 µM and the TGI [48] was > 100 µM. The GI50 [49] was > 100 µM, the TGI [49] was > 100 µM and the GI50 [50] was > 100 µM. For the same compound, the TGI [50] was > 100 µM, the GI50 [51] was > 100 µM and the TGI [51] was > 100 µM. For the same compound, the GI50 [52] was > 100 µM, the TGI [52] was > 100 µM and the GI50 [53] was > 100 µM. For the same compound, the TGI [53] was > 100 µM, the GI50 [54] was > 100 µM and the TGI [54] was > 100 µM. For the same compound, the GI50 [55] was > 100 µM, the TGI [55] was > 100 µM and the GI50 [56] was > 100 µM. For the same compound, the TGI [56] was > 100 µM, the GI50 [57] was > 100 µM and the TGI [57] was > 100 µM.

With O=c1ccc(N=Nc2ccc([N+](=O)[O-])cc2)ccc1O the GI50 [1] was 3.47 µM, the TGI [1] was 38.8 µM and the GI50 [2] was 8.65 µM. The TGI [2] was > 100 µM, the GI50 [3] was 3.42 µM and the TGI [3] was 28.3 µM. For the same compound, the GI50 [4] was 7.19 µM, the TGI [4] was > 100 µM and the GI50 [5] was 6.08 µM. For the same compound, the TGI [5] was > 100 µM, the GI50 [6] was 4.18 µM and the TGI [6] was > 100 µM. The GI50 [7] was 5.17 µM, the TGI [7] was > 100 µM and the GI50 [8] was 18.1 µM. The TGI [8] was > 100 µM, the GI50 [9] was 3.48 µM and the TGI [9] was > 100 µM. The GI50 [10] was 4.08 µM, the TGI [10] was > 100 µM and the GI50 [11] was 4 µM. For the same compound, the TGI [11] was > 100 µM, the GI50 [58] was 4.13 µM and the TGI [58] was > 100 µM. The GI50 [12] was 21.7 µM, the TGI [12] was > 100 µM and the GI50 [13] was 4.31 µM. For the same compound, the TGI [13] was > 100 µM, the GI50 [15] was 9.64 µM and the TGI [15] was 71.2 µM. For the same compound, the GI50 [16] was 3.45 µM, the TGI [16] was > 100 µM and the GI50 [17] was 19 µM. The TGI [17] was > 100 µM, the GI50 [18] was 3.15 µM and the TGI [18] was > 100 µM. For the same compound, the GI50 [19] was 7.79 µM, the TGI [19] was > 100 µM and the GI50 [20] was 10.6 µM. It also gave a TGI [20] of 81.6 µM, a GI50 [21] of 9.33 µM and a TGI [21] of 73.6 µM. For the same compound, the GI50 [22] was 4.9 µM, the TGI [22] was > 100 µM and the GI50 [23] was 5.35 µM. For the same compound, the TGI [23] was > 100 µM, the GI50 [24] was 4.57 µM and the TGI [24] was > 100 µM. The GI50 [25] was 5.54 µM, the TGI [25] was > 100 µM and the GI50 [26] was 3.61 µM. For the same compound, the TGI [26] was > 100 µM, the GI50 [27] was 9.14 µM and the TGI [27] was > 100 µM. The GI50 [28] was 7.07 µM, the TGI [28] was > 100 µM and the GI50 [29] was 8.74 µM. The TGI [29] was > 100 µM, the GI50 [30] was 5.99 µM and the TGI [30] was > 100 µM. The GI50 [31] was 3.33 µM, the TGI [31] was 25.8 µM and the GI50 [32] was 20 µM. For the same compound, the TGI [32] was > 100 µM, the GI50 [33] was 6.37 µM and the TGI [33] was > 100 µM. The GI50 [34] was 28.4 µM, the TGI [34] was > 100 µM and the GI50 [35] was > 100 µM. The TGI [35] was > 100 µM, the GI50 [36] was 6.33 µM and the TGI [36] was > 100 µM. For the same compound, the GI50 [37] was 3.97 µM, the TGI [37] was > 100 µM and the GI50 [38] was 4.38 µM. For the same compound, the TGI [38] was > 100 µM, the GI50 [39] was 10.8 µM and the TGI [39] was > 100 µM. For the same compound, the GI50 [40] was 12.7 µM, the TGI [40] was > 100 µM and the GI50 [41] was 4.46 µM. For the same compound, the TGI [41] was > 100 µM, the GI50 [42] was 4.19 µM and the TGI [42] was > 100 µM. The GI50 [43] was 3.36 µM, the TGI [43] was > 100 µM and the GI50 [44] was 5.71 µM. For the same compound, the TGI [44] was > 100 µM, the GI50 [45] was 6.55 µM and the TGI [45] was > 100 µM. For the same compound, the GI50 [46] was 6.8 µM, the TGI [46] was > 100 µM and the GI50 [47] was 3.68 µM. The TGI [47] was > 100 µM, the GI50 [48] was 4.29 µM and the TGI [48] was > 100 µM. The GI50 [49] was 3.83 µM, the TGI [49] was > 100 µM and the GI50 [50] was 3.89 µM. For the same compound, the TGI [50] was > 100 µM, the GI50 [51] was 4.27 µM and the TGI [51] was > 100 µM. The GI50 [52] was 30.1 µM, the TGI [52] was > 100 µM and the GI50 [53] was 8.45 µM. The TGI [53] was 43.9 µM, the GI50 [54] was 7.37 µM and the TGI [54] was > 100 µM. The GI50 [55] was 5.15 µM, the TGI [55] was > 100 µM and the GI50 [56] was 14.8 µM. For the same compound, the TGI [56] was > 100 µM, the GI50 [57] was 4.14 µM and the TGI [57] was > 100 µM.
